Tests used:
human mGluR5d = biological target: T1, human mGluR5d (Homo sapiens, UniProt P41594); test: FLIPR assay, mGluR5 antagonism in cells expressing human mGluR5d; type: cell-based; conditions: intracellular calcium mobilization, read-out: FLIPR hmGluR5d
T1 construct: expressed in transfected cells
Source text: The properties of the compounds of the invention can be analyzed using standard assays for pharmacological activity. Examples of glutamate receptor assays are well known in the art as described in for example Aramori et al., Neuron 8:757 (1992), Tanabe et al., Neuron 8:169 (1992), Miller et al., J. Neuroscience 15: 6103 (1995), Balazs, et al., J. Neurochemistry 69:151 (1997). The methodology described in these publications is incorporated herein by reference. Conveniently, the compounds of the invention can be studied by means of an assay (FLIPR) that measures the mobilization of intracellular calcium, [Ca^2+]i in cells expressing mGluR5 or another assay (IP3) that measures inositol phosphate turnover.
Cells expressing human mGluR5d as described in WO97/05252 are seeded at a density of 100,000 cells per well on collagen coated clear bottom 96-well plates with black sides and experiments are done 24 h following seeding. All assays are done in a buffer containing 127 mM NaCl, 5 mM KCl, 2 mM MgCl2, 0.7 mM NaH2PO4, 2 mM CaCl2, 0.422 mg/ml NaHCO3, 2.4 mg/ml HEPES, 1.8 mg/ml glucose and 1 mg/ml BSA Fraction IV (pH 7.4). Cell cultures in the 96-well plates are loaded for 60 minutes in the above mentioned buffer containing 4 μM of the acetoxymethyl ester form of the fluorescent calcium indicator fluo-3 (Molecular Probes, Eugene, Oreg.) in 0.01% pluronic acid (a proprietary, non-ionic surfactant polyol—CAS Number 9003-11-6). Following the loading period the fluo-3 buffer is removed and replaced with fresh assay buffer. FLIPR experiments are done using a laser setting of 0.800 W and a 0.4 second CCD camera shutter speed with excitation and emission wavelengths of 488 nm and 562 nm, respectively. Each experiment is initiated with 160 μl of buffer present in each well of the cell plate. A 40 μl addition from the antagonist plate was followed by a 50 μL addition from the agonist plate. A 90 second interval separates the antagonist and agonist additions. The fluorescence signal is sampled 50 times at 1 second intervals followed by 3 samples at 5 second intervals immediately after each of the two additions. Responses are measured as the difference between the peak height of the response to agonist, less the background fluorescence within the sample period. IC50 determinations are made using a linear least squares fitting program.

[1] = Determination of brain to plasma ratio in rat; type: in vivo; conditions: brain and plasma, female Sprague Dawley rats, read-out: Brain/Plasma Ratio of compound in Rat
Procedure: Brain to plasma ratios are estimated in female Sprague Dawley rats. The compound is dissolved in water or another appropriate vehicle. For determination of brain to plasma ratio the compound is administrated as a subcutaneous, or an intravenous bolus injection, or an intravenous infusion, or an oral administration. At a predetermined time point after the administration a blood sample is taken with cardiac puncture. The rat is terminated by cutting the heart open, and the brain is immediately retained. The blood samples are collected in heparinized tubes and centrifuged within 30 minutes, in order to separate the plasma from the blood cells. The plasma is transferred to 96-well plates and stored at −20° C. until analysis. The brains are divided in half, and each half is placed in a pre-tarred tube and stored at −20° C. until analysis. Prior to the analysis, the brain samples are thawed and 3 ml/g brain tissue of distilled water is added to the tubes. The brain samples are sonicated in an ice bath until the samples are homogenized. Both brain and plasma samples are precipitated with acetonitrile. After centrifugation, the supernatant is diluted with 0.2% formic acid. Analysis is performed on a short reversed-phase HPLC column with rapid gradient elution and MSMS detection using a triple quadrupole instrument with electrospray ionisation and Selected Reaction Monitoring (SRM) acquisition. Liquid-liquid extraction may be used as an alternative sample clean-up. The samples are extracted, by shaking, to an organic solvent after addition of a suitable buffer. An aliquot of the organic layer is transferred to a new vial and evaporated to dryness under a stream of nitrogen. After reconstitution of the residuals the samples are ready for injection onto the HPLC column.

[2] = biological target: hERG-encoded potassium channel (Homo sapiens, UniProt Q12809); test: hERG IonWorks; type: cell-based
[3] = In vitro stability in human liver microsomes (CLint); type: in vitro ADME; conditions: pH 7.4, 0.5 mg/mL protein, 1.0 μmol/L compound, NADPH
Procedure: Rat liver microsomes are prepared from Sprague-Dawley rats liver samples. Human liver microsomes are either prepared from human liver samples or acquired from BD Gentest. The compounds are incubated at 37° C. at a total microsome protein concentration of 0.5 mg/mL in a 0.1 mol/L potassium phosphate buffer at pH 7.4, in the presence of the cofactor, NADPH (1.0 mmol/L). The initial concentration of compound is 1.0 μmol/L. Samples are taken for analysis at 5 time points, 0, 7, 15, 20 and 30 minutes after the start of the incubation. The enzymatic activity in the collected sample is immediately stopped by adding a 3.5 times volume of acetonitrile. The concentration of compound remaining in each of the collected samples is determined by means of LC-MS. The elimination rate constant (k) of the mGluR5 inhibitor is calculated as the slope of the plot of In[mGluR5 inhibitor] against incubation time (minutes). The elimination rate constant is then used to calculate the half-life (T ½) of the mGluR5 inhibitor, which is subsequently used to calculate the intrinsic clearance (CLint) of the mGluR5 inhibitor in liver microsomes as:
CLint.=(ln2×incubation volume)/(T½×protein concentration)=μl/min/mg

T1 sequence (P41594 21-942 isoform P41594-3 limits assumed): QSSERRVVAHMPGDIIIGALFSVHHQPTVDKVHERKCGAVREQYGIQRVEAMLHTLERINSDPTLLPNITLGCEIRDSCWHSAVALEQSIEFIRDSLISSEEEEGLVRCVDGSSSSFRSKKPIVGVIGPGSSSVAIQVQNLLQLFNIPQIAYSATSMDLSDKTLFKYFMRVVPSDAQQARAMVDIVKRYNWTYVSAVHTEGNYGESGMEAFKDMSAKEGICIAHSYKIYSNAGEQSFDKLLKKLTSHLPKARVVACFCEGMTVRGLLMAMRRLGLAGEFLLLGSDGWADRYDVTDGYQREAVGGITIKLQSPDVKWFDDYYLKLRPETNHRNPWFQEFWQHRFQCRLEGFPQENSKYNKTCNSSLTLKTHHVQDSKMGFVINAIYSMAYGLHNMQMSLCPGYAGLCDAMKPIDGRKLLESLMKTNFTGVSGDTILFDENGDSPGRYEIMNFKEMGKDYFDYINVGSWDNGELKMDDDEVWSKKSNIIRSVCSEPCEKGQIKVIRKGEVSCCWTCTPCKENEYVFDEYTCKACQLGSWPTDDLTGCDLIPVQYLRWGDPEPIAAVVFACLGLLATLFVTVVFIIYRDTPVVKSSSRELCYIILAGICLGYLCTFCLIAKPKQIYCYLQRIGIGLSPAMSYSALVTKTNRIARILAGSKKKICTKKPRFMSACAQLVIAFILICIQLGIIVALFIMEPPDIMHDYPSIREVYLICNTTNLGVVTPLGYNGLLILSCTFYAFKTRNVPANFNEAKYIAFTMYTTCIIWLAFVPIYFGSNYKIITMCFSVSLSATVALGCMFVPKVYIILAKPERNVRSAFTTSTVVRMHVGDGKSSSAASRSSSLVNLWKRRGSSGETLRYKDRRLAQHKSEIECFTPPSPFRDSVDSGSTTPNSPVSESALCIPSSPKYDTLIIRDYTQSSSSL
Sequence of hERG-encoded potassium channel (Q12809 whole entry): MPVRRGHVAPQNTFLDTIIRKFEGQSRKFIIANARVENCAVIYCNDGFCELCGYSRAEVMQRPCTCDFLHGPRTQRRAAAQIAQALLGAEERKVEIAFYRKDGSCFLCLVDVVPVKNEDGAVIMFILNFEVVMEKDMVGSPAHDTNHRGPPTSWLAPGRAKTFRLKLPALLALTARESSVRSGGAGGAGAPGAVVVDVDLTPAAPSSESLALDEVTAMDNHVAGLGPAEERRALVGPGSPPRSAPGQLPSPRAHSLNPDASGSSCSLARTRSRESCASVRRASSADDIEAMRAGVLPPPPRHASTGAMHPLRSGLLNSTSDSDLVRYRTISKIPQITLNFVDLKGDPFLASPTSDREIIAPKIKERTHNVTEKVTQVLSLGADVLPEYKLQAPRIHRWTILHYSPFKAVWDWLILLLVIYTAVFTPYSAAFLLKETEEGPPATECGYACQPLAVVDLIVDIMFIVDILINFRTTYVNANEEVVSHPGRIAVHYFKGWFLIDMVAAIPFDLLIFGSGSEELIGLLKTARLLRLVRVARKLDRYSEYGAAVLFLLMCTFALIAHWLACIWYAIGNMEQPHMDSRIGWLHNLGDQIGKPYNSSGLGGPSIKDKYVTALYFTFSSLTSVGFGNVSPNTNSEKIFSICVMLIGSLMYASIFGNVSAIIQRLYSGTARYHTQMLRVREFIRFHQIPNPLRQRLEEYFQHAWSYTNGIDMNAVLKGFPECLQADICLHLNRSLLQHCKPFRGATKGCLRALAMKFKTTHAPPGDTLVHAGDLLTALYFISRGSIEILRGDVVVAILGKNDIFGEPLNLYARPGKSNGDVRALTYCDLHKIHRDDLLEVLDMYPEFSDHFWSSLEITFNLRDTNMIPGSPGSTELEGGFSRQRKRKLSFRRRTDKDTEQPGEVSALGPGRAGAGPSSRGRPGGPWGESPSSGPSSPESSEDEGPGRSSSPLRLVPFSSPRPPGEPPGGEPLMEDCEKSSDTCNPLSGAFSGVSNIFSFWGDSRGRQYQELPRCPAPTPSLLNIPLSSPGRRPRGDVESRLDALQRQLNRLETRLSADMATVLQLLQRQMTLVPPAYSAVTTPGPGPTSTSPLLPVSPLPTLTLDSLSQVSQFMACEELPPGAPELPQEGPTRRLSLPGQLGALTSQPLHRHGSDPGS

Work on `Clc1cccc(-c2nc(CN3CCCn4c(-c5cccnc5)nnc43)no2)c1` [Example 35.2, 8-{[5-(3-chlorophenyl)-1,2,4-oxadiazol-3-yl]methyl}-3-pyridin-3-yl-5,6,7,8-tetrahydro[1,2,4]triazolo[4,3-a]pyrimidine] yielded an IC50 (human mGluR5d) of 52 nM and a Kp [1] of 0.05.
In the case of `C[C@H](c1cc(-c2cccc(Cl)c2)on1)N1CCCn2c(-c3cn[nH]c(=O)c3)nnc21` [Example 59.3, 5-(8-{1-[5-(3-Chloro-phenyl)-isoxazol-3-yl]-ethyl}-5,6,7,8-tetrahydro-[1,2,4]triazolo[4,3-a]pyrimidin-3-yl)-2H-pyridazin-3-one], the IC50 (human mGluR5d) is reported as 34 nM, the “hERG IonWorks” value [2] is reported as 15 µM and the microsomal CLint at 1 μmol/L [3] is reported as under 12 µL/min/mg.
With `Cc1cccc(-n2nnc(CN3CCCn4c(-c5cccnc5)nnc43)n2)c1` [Example 35.1, 3-Pyridin-3-yl-8-(2-m-tolyl-2H-tetrazol-5-ylmethyl)-5,6,7,8-tetrahydro-[1,2,4]triazolo[4,3-a]pyrimidine] the IC50 (human mGluR5d) was 37 nM, the “hERG IonWorks” value [2] was 26 µM and the Kp [1] was 0.005. The microsomal CLint at 1 μmol/L [3] was under 12 µL/min/mg.
For `Clc1cccc(-c2nc(CN3CCCn4c(-c5cncnc5)nnc43)no2)c1` [Example 35.17, 8-[5-(3-Chloro-phenyl)-[1,2,4]oxadiazol-3-ylmethyl]-3-pyrimidin-5-yl-5,6,7,8-tetrahydro-[1,2,4]triazolo[4,3-a]pyrimidine], the IC50 (human mGluR5d) was 44 nM, the “hERG IonWorks” value [2] was 22 µM and the Kp [1] was 0.11. The microsomal CLint at 1 μmol/L [3] was 14 µL/min/mg.
